“Also recorded” adds a separate entry of the source.
What was measured:
[1] = Stopped-flow kinetic analysis of catalytic dismutation of superoxide; type: biochemical; conditions: for kCAT: catalytic rate constant for dismutation of superoxide, pH 8.1 and 21°C; for SOD activity (catalysis of the dismutation of superoxide), in words: stopped-flow kinetic analysis
Excerpt: Stopped-flow kinetic analysis is an accurate and direct method for quantitatively monitoring the decay rates of superoxide in water.
For the attainment of consistent and accurate measurements all reagents were biologically clean and metal-free. To achieve this, all buffers (Calbiochem) were biological grade, metal-free buffers and were handled with utensils which had been washed first with 0.1 N HCl, followed by purified water, followed by a rinse in a 10^-4 M EDTA bath at pH 8, followed by a rinse with purified water and dried at 65°C for several hours. Dry DMSO solutions of potassium superoxide (Aldrich) were prepared under a dry, inert atmosphere of argon in a Vacuum Atmospheres dry glovebox using dried glassware. The DMSO solutions were prepared immediately before every stopped-flow experiment. A mortar and pestle were used to grind the yellow solid potassium superoxide (~100 mg). The powder was then ground with a few drops of DMSO and the slurry transferred to a flask containing an additional 25 ml of DMSO. The resultant slurry was stirred for 1/2 h and then filtered. […] These solutions were transferred to a glovebag under nitrogen in sealed vials prior to loading the syringe under nitrogen. It should be noted that the DMSO/superoxide solutions are extremely sensitive to water, heat, air, and extraneous metals. A fresh, pure solution has a very slight yellowish tint.
Water for buffer solutions was delivered from an in-house deionized water system to a Barnstead Nanopure Ultrapure Series 550 water system and then double distilled, first from alkaline potassium permanganate and then from a dilute EDTA solution. For example, a solution containing 1.0 g of potassium permanganate, 2 liters of water and additional sodium hydroxide necessary to bring the pH to 9.0 were added to a […] fitted with a solvent distillation head. This distillation will oxidize any trace of organic compounds in the water. The final distillation was carried out under nitrogen in a 2.5-liter flask containing 1500 ml of water from the first still and 1.0 x 10^-6M EDTA. This step will remove remaining trace metals from the ultrapure water. To prevent EDTA mist from volatilizing over the reflux arm to the still head, the 40-cm vertical arm was packed with glass beads and wrapped with insulation. This system produces deoxygenated water that can be measured to have a conductivity of less than 2.0 nanomhos/cm^2.
The stopped-flow spectrometer system was designed and manufactured by Kinetic Instruments Inc. (Ann Arbor, MI) and was interfaced to a MAC IICX personal computer. The software for the stopped-flow analysis was provided by Kinetics Instrument Inc. and was written in QuickBasic with MacAdios drivers. Typical injector volumes (0.10 ml of buffer and 0.006 ml of DMSO) were calibrated so that a large excess of water over the DMSO solution were mixed together. […] Aqueous solutions to be mixed with the DMSO solution of superoxide were prepared using 80 mM concentrations of the Hepes buffer, pH 8.1 (free acid + Na form). One of the reservoir syringes was filled with 5 ml of the DMSO solution while the other was filled with 5 ml of the aqueous buffer solution. The entire injection block, mixer, and spectrometer cell were immersed in a thermostatted circulating water bath with a temperature of 21.0 ± 0.5°C.
Prior to initiating data collection for a superoxide decay, a baseline average was obtained by injecting several shots of the buffer and DMSO solutions into the mixing chamber. These shots were averaged and stored as the baseline.

[2] = tested on: human aortic endothelial cells (HAE cells)
Excerpt: Human peripheral blood neutrophils were isolated from fresh venous blood of healthy volunteers. EDTA anticoagulated blood was separated using a single step density centrifugation (Polymorphprep; Nycomed Pharma, Oslo, Norway) followed by several washes in Hank's balanced salt solution supplemented with 0.5% BSA (Bovine Serum Albumin) (HBSSB) and the hypertonic lysis of erythrocytes. Neutrophils were counted via Coulter electronic particle counter and resuspended in HBSSB supplemented with 25% Endothelial Basal Medium (EBM), (Clonetics Corporation, San Diego, CA) at a concentration of 5 x 10^6 polymorphonuclear leukocytes (PMN)/ml.
The cytotoxic effects of stimulated neutrophils on endothelial cells were determined using a ^51Cr-release assay as previously described (Moldow, C.F., and Jacob, H.S. (1984) Methods Enzymol. 105, 378-385). Confluent monolayers of human aortic endothelial cells (HAE cells; Clonetics) grown in 96-well culture plates were prelabeled with 1 µCi/well ^51Cr (Na2 ^51Cr2O4, New England Nuclear, Boston, MA). The cells were incubated for 18 h at 37°C, then cytokine-activated with 10 Units/well human recombinant tumor necrosis factor-a (hrTNF-α; Monsanto Company, St. Louis, MO) for 4 h at 37°C. The cells were washed twice to remove unincorporated radioactivity with Hank's balanced salt solution supplemented with 0.5% BSA. To assess inhibition of PMN-mediated cytotoxicity, manganese(II) complexes at various doses (0-300 µM) were added to five replicate wells/dose of HAE cells immediately prior to the addition of PMN. Suspensions of PMN in HBSSB supplemented with 25% Endothelial Basal Medium were added to the wells at a neutrophil to endothelial cell ratio of 50:1. The PMN were allowed to adhere for 15 minutes at 37°C, primed with 125 Units/well hrTNF-α (Berkow, R.L., Wang, D., Larrick, J.W., Dodson, R.W., and Howard, T.H. (1987) J. Immunol. 139, 3783-3791; Varani, J.; Bendelow, M. J. Sealey, D. E.; Kunkel, S. L.; Gannon, D. E.; Ryan, U.S.; and Ward, P.A. (1987) Lab. Invest., 59, 292-295) for 10 minutes, and stimulated with human recombinant complement component C5a (Sigma Chemical, St. Louis, MO). […] After an additional incubation of 4 hours at 37°C, 200 µl of the 250 µl reaction volume (soluble fraction) was removed to a tube for counting. The cells were washed twice with 200 µl HBSSB (nonadherent fraction) and the washes pooled with the soluble fraction. The adherent fraction was collected by lysing the HAE cells with 200 µl 1N NaOH for 30 minutes and removing to separate tubes. Both fractions were analyzed by gamma scintillation spectrometry. The percentage cytotoxicity was calculated by the following formula: % Cytotoxicity =(cpm (soluble + nonadherent fractions))/(cpm (soluble + nonadherent + adherent fractions))x 100 [formula] Specific cytotoxicity reflects the difference between ^51Cr-release induced by stimulated PMN and unstimulated PMN. The IC50 values for the manganese(II) complexes for protection against neutrophil-mediated cytotoxicity were determined from a computer-driven logistic regression equation from a plot of % specific cytotoxicity versus the concentration of the manganese(II) complex.

[3] = tested on: colonic myeloperoxidase activity; experiment: Mouse acetic acid-induced colitis model (colonic myeloperoxidase); type: in vivo; conditions: 30 mg/kg dose, intracolonic, 30 minutes before acetic acid, tissue after 24 hours
Method: Mouse colitis model. […] Mice were lightly anesthetized. A solution of 3% (v/v) aqueous acetic acid was instilled intracolonically via a flexible polyethylene tube. After 24 hours, the animals were killed and colonic tissue samples were obtained. Tissue samples were assessed biochemically for the neutrophil marker enzyme, myeloperoxidase (MPO). The colonic tissue samples were minced, homogenized in detergent, and sonicated. After centrifugation, enzyme activities were assayed spectrophotometrically by determining the decomposition of peroxide using o-dianisidine as the hydrogen donor. Data was obtained as the absorbance (460 nm) at 20 minutes. Test agents were given intracolonically at a dose of 30 mg/kg body weight 30 minutes before acetic acid instillation as a sonicated suspension in 0.5% aqueous methyl cellulose. Vehicle was given to appropriate acetic acid control animals. Normal tissue was obtained from control animals which received only vehicle. Colonic myeloperoxidase activities were determined as units/g wet weight of tissue. Reduction of colonic myeloperoxidase activity by test agents in acetic acid-treated mice is expressed as % inhibition (Table 2). Colonic myeloperoxidase activity correlated with the degree of tissue inflammation as assessed by visual and histological analysis.

[Manganese(II)[1,4,7,10,13,16-hexaazacyclooctadecane)] Chloride [Example 13]
kCAT ([1]; given as ND): ND (Manganese(II) complex has no detectable superoxide dismutase activity. (kcat<10^6M^-1sec^-1)) | SOD activity (catalysis of the dismutation of superoxide), in words [1]: are not catalysts for the dismutation of superoxide

[Manganese(II)[1,4,7,10,13,16,19-Heptaazaacycloheneicosane)]Chloride [Example 14]
kCAT ([1]; given as ND): ND (Manganese(II) complex has no detectable superoxide dismutase activity. (kcat<10^6M^-1sec^-1)) | SOD activity (catalysis of the dismutation of superoxide), in words [1]: are not catalysts for the dismutation of superoxide

[Manganese(III)(1,4,7,11,14-Pentaazacycloheptadecane)] Chloride [Example 11]
kCAT ([1]; given as ND): ND (Manganese(II) complex has no detectable superoxide dismutase activity. (kcat<10^6M^-1sec^-1)) | SOD activity (catalysis of the dismutation of superoxide), in words [1]: ineffective at catalyzing the dismutation of superoxide

[Manganese(II)nitrate(1,4,7,10,13-pentaazacyclopentadecane)] Nitrate [Example 9]
kCAT [1]: 2.3e+07 M⁻¹ s⁻¹

{Manganese(II)dichloro[2-(1-Naphthyl)-1,4,7,10,13-pentaazacyclopentadecane]} [Example 32]
kCAT [1]: 6.98e+06 M⁻¹ s⁻¹

[Manganese(II) (1,4,8,11-Tetraazacyclotetradecane)] Chloride [Example 20]
kCAT ([1]; given as ND): ND (Manganese(II) complex has no detectable superoxide dismutase activity. (kcat<10^6M^-1sec^-1)) | SOD activity (catalysis of the dismutation of superoxide), in words [1]: are not catalysts for the dismutation of superoxide

[Manganese(II)(5,7,7,12,14,14-Hexamethyl-1,4,8,11-tetraazacyclotetradeca-4,11-diene)] Chloride [Example 22]
kCAT ([1]; given as ND): ND (Manganese(II) complex has no detectable superoxide dismutase activity. (kcat<10^6M^-1sec^-1))

{Manganese(II)dichloro[(2S,8R)-Dimethyl-1,4,7,10,13-penta-azacyclopentadecane]} [Example 34]
kCAT [1]: 7.08e+06 M⁻¹ s⁻¹

[Manganese(II)dichloro(3,6,9,12,18-Pentaazabicyclo(12.3.1)octadecane)] [Example 38]
kCAT [1]: 5.28e+06 M⁻¹ s⁻¹

{Manganese(II)dichloro[(2S, 5R)-Dimethyl-1,4,7,10,13-pentaazacyclopentadecane]} [Example 33]
kCAT [1]: 2.9e+07 M⁻¹ s⁻¹

[Manganese(II)(2,7,12-Trimethyl-3,7,11,17-tetraazabicyclo[11.3.1]heptadeca-1(17),2, 11,13,15-pentaene)] Chloride [Example 24]
kCAT ([1]; given as ND): ND (Manganese(II) complex has no detectable superoxide dismutase activity. (kcat<10^6M^-1sec^-1))

[Manganese(II)[1-oxa-4,7,10,13-Tetrazacyclopentadecane)] Chloride [Example 17]
kCAT ([1]; given as ND): ND (Manganese(II) complex has no detectable superoxide dismutase activity. (kcat<10^6M^-1sec^-1)) | SOD activity (catalysis of the dismutation of superoxide), in words [1]: do not have SOD activity

[Manganese(II)(1,4,7,10,14-Pentaazacycloheptadecane)] Chloride [Example 12]
kCAT ([1]; given as ND): ND (Manganese(II) complex has no detectable superoxide dismutase activity. (kcat<10^6M^-1sec^-1)) | SOD activity (catalysis of the dismutation of superoxide), in words [1]: ineffective at catalyzing the dismutation of superoxide

[Manganese(II)dichloro(trans-2,3-Cyclohexano-1,4,7,10,13-pentaazacyclopentadecane)] [Example 35]
kCAT [1]: 3.44e+07 M⁻¹ s⁻¹

[Manganese(II)(1-Methyl-1,4,7,10,13-pentaazacyclopentadecane)]Chloride [Example 15]
kCAT ([1]; given as ND): ND (Manganese(II) complex has no detectable superoxide dismutase activity. (kcat<10^6M^-1sec^-1)) | SOD activity (catalysis of the dismutation of superoxide), in words [1]: ineffective at dismutating superoxide

[Manganese(II)(1,4,8,12-Tetraazacyclopentadecane)] Chloride [Example 21]
kCAT ([1]; given as ND): ND (Manganese(II) complex has no detectable superoxide dismutase activity. (kcat<10^6M^-1sec^-1)) | SOD activity (catalysis of the dismutation of superoxide), in words [1]: do not have SOD activity

[Manganese(II)(1-Methyl-1,4,7,11,14-pentaazacyclohexadecane)] Chloride [Example 16]
kCAT ([1]; given as ND): ND (Manganese(II) complex has no detectable superoxide dismutase activity. (kcat<10^6M^-1sec^-1)) | SOD activity (catalysis of the dismutation of superoxide), in words [1]: ineffective at catalyzing the dismutation of superoxide

[Manganese(II)(2,13-Dimethyl-3,6,9,12,18-pentaazabicyclo[12.3.1]octadeca-1(18)2,12,14,16 -pentaene)]Chloride [Example 26]
kCAT ([1]; given as ND): ND (Manganese(II) complex has no detectable superoxide dismutase activity. (kcat<10^6M^-1sec^-1))

C[C@@H]1CNCCNCCNCCNCCN1.[Cl-].[Cl-].[Mn+2] [Example 4, [Manganese(II)dichloro((R)-2-Methyl-1,4,7,10,13-pentaazacyclopentadecane)]]
protection against human neutrophil-mediated cytotoxicity, in words [2]: protective against human neutrophil-mediated cytotoxicity

[Manganese(II)1,4,7,10,13-Pentamethyl-1,4,7,10,13-pentaazacyclopentadecane)] Chloride [Example 19]
kCAT ([1]; given as ND): ND (Manganese(II) complex has no detectable superoxide dismutase activity. (kcat<10^6M^-1sec^-1)) | SOD activity (catalysis of the dismutation of superoxide), in words [1]: ineffective at dismutating superoxide

[Manganese(II)1,4,8,12-tetramethyl-1,4,8,12-tetraazacyclopentadecane)] Chloride [Example 18]
kCAT ([1]; given as ND): ND (Manganese(II) complex has no detectable superoxide dismutase activity. (kcat<10^6M^-1sec^-1)) | SOD activity (catalysis of the dismutation of superoxide), in words [1]: do not have SOD activity

[Manganese(II)1,5,9,13-Tetraazacyclohexadecane)] Chloride [Example 10]
kCAT ([1]; given as ND): ND (Manganese(II) complex has no detectable superoxide dismutase activity. (kcat<10^6M^-1sec^-1)) | SOD activity (catalysis of the dismutation of superoxide), in words [1]: are not catalysts for the dismutation of superoxide

[Cl-].[Cl-].[Mn+2].c1ccc(CC2CNCCNCCNCCNCCN2)cc1 (centres unmarked) [Example 6, [Manganese(II)dichloro(2-Phenylmethyl-1,4,7,10,13-pentaazacyclopentadecane)]]
% Inhibition of Colonic Myeloperoxidase Activity [3]: 48%

Manganese(II)(2,12-Dimethyl-3,7,11,17-tetraazabicyclo[11.3.1]heptadeca-1(17),2,11,13,15 -pentaenel] Chloride [Example 23]
kCAT ([1]; given as ND): ND (Manganese(II) complex has no detectable superoxide dismutase activity. (kcat<10^6M^-1sec^-1))

[Manganese(II)(1,4,8,11-Tetramethyl-1,4,8,11-tetraazacyclotetradecane)]Chloride [Example 25]
kCAT ([1]; given as ND): ND (Manganese(II) complex has no detectable superoxide dismutase activity. (kcat<10^6M^-1sec^-1)) | SOD activity (catalysis of the dismutation of superoxide), in words [1]: are not catalysts for the dismutation of superoxide

[Manganese(II)dichloro(2,3-Benzo-1,4,7,10,13-pentaazacyclopentadecane)] [Example 37]
kCAT [1]: 4.6e+06 M⁻¹ s⁻¹

MnCl2
kCAT ([1]; given as ND): ND (Manganese(II) complex has no detectable superoxide dismutase activity. (kcat<10^6M^-1sec^-1)) | SOD activity (catalysis of the dismutation of superoxide), in words [1]: failed to perturb the second order spontaneous decay of superoxide; also recorded: has no SOD activity
